{"source": "PubChem BioAssay AID1918956", "about": "(Molecular Pharmacology Branch, DTP, NCI, 2023)", "tested_on": "OVCAR-5 complex spheroids, viability", "experiment": "Anticancer human tumor OVCAR-5 cell line growth inhibition;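 note: spheroids exposed to agents for seven days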;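 for viability, T/C: 100% = DMSO vehicle control wells viability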", "conditions": "for viability, T/C: stronger effect = lower value", "from_the_text": "Multicellular complex tumor spheroid response to LSD1 Inhibitor Iadademstat in combination with a variety of drugs and investigational agents in selected tumor cell lines\nThe current study was undertaken to assess response to LSD1 inhibitors in combination with standard-of-care drugs and investigational agents in solid tumor complex spheroid models as well as in the K-562 leukemia. Complex spheroids include a stromal component modeled by human endothelial cells (HUVEC) and fibroblasts modeled by human mesenchymal stem cells (MSCs). The concentration ranges selected for each drug and investigational agent were based upon clinically achievable concentrations if the clinical Cmax of the agent was known.\nCompounds. The drugs and investigational agents used in this study are listed on Table 1. All of the agents used, including staurosporine (NSC755774) and gemcitabine (NSC613327), were obtained from the Developmental Therapeutics Program, NCI. FDA-approved anticancer drugs are available from the NCI at http://dtp.nci.nih.gov/branches/dscb/oncology_drugset_explanation.html. Drugs and investigational agents were >95% pure by proton nuclear magnetic resonance (NMR) and liquid chromatography/mass spectrometry (LC/MS). Stock solutions were prepared at 400x in DMSO, stored at -70 degrees C, and diluted in fresh medium prior to their use. The final concentration of DMSO in cell culture wells never exceeded 0.25% (v/v). The FDA-approved anticancer drug set is available from the Developmental Therapeutics Program at https://dtp.cancer.gov/organization/dscb/obtaining/available_plates.htm. All drugs and investigational agents were tested over a range starting from a high concentration at or near the clinical Cmax and decreasing in half-log increments. If the clinical Cmax for an agent had not been determined, the highest concentration tested was 10 microM.\nCell Lines. The patient-derived cancer cell (PDC) lines: 292921-168-R-J2-PDC, K24384-001-R-PDC, and 521955-158-R2-J5-PDC pancreatic carcinomas, 556581-035-R-J1 ovarian carcinoma, 324938-238-R-J1-PDC, 855422-203-R-J1-PDC and 883617-216-R-J1-PDC urothelial bladder carcinomas, 743489-274-T-PDC renal cell carcinoma, 138582-R-J1 Merkel cell tumor, K60290-347-R-J1 and K57222-313-R-J1-PDC glioblastomas, 653999-131-R-J2-PDC, LG0703-F948-PDC, and 349418-098-R-PDC non-small cell lung carcinomas, 885512-296-R-J2-PDC, 171881-019-R-J1-PDC breast carcinomas and 186277-243-T-J2-PDC and 233499-124-R-J2-PDC colon carcinomas were obtained from the NCI Patient-Derived Models Repository (PDMR, https://pdmr.cancer.gov). The established cell lines NCI/ADR-RES (RRID:CVCL_14520 and OVCAR-5 (RRID:CVCL_1628) ovarian carcinomas, 786-O (RRID:CVCL_1051) and A498 […] renal cell carcinoma, NCI-H211 (ATCC, cat. CRL-5824; RRID:CVCL_1529), NCI-H196 (ATCC, cat. CRL-5823, RRID:CVCL_1509), SW 1271 (ATCC, cat. CRL-2177, RRID:CVCL_1716) and NCI-H1876 (ATCC, cat. CRL-5902, RRID:CVCL_1503) small cell lung carcinomas, MDA-MB-231 (RRID:CVCL_0062) and MDA-MB-468 (RRID:CVCL_0419)breast carcinomas (10-12). Pooled donor human umbilical vein endothelial cells (HUVEC, Lonza, cat. CC-2519) and human mesenchymal stem cells (hMSC, Lonza, cat. PT-2501) were purchased from Lonza (Walkersville, MD).\nCell Culture. All cells were maintained in an incubator at 37 degrees C and 5% CO2 with 95% humidity. The PDC lines were cultured according to standard operating procedures established by the NCI PDMR (https://pdmr.cancer.gov). Briefly all PDCs were thawed and cultured in Matrigel-coated flasks prepared with a working solution of 1X Ham's F-12 nutrient mix, without supplementation (Invitrogen, Waltham, MA, cat. 11765054), 100 U/mL penicillin-streptomycin (Invitrogen, cat. 15140122), and 2.5% Matrigel (Corning Inc., Corning, NY, cat. 354248) for the first three passages. […]", "note": "Values joined by “and” are separate entries in the source; they are usually repeats but may differ in a detail not shown here. Equal values may be shown once.", "data": [{"smiles": "COc1ccc([C@@H](O)c2cc(-c3ncnc4cc(N5CCOCC5)ccc34)c(F)cc2Cl)nn1", "values": [{"measurement": "viability, T/C", "setting": "compound 0.0316 µM", "result": "92.1% and 91.6%"}, {"measurement": "viability, T/C", "setting": "compound 0.1 µM", "result": "91.6% and 84.7%"}, {"measurement": "viability, T/C", "setting": "compound 0.316 µM", "result": "73.3% and 58.1%"}, {"measurement": "viability, T/C", "setting": "compound 1 µM", "result": "55.4% and 44.1%"}, {"measurement": "viability, T/C", "setting": "compound 3.16 µM", "result": "45.3% and 32.7%"}, {"measurement": "viability, T/C", "setting": "compound 10 µM", "result": "24.9% and 18.4%"}, {"measurement": "IC50", "setting": "curve of compound", "result": "1790 nM and 690 nM"}]}, {"smiles": "Cn1ncnc1C1c2n[nH]c(=O)c3cc(F)cc(c23)NC1c1ccc(F)cc1", "note": "(stereo not given)", "values": [{"measurement": "viability, T/C", "setting": "compound 0.000316 µM", "result": "96.3% and 102%"}, {"measurement": "viability, T/C", "setting": "compound 0.001 µM", "result": "91.2% and 102%"}, {"measurement": "viability, T/C", "setting": "compound 0.00316 µM", "result": "89% and 98.7%"}, {"measurement": "viability, T/C", "setting": "compound 0.01 µM", "result": "93.4% and 95.9%"}, {"measurement": "viability, T/C", "setting": "compound 0.0316 µM", "result": "90.2% and 86%"}, {"measurement": "viability, T/C", "setting": "compound 0.1 µM", "result": "99.8% and 93.8%"}, {"measurement": "IC50", "setting": "curve of compound", "result": "> 100", "unit": "nM"}]}, {"smiles": "NC1CC1c1ccc(-c2cccc(O)c2)cc1", "note": "(stereo not given)", "values": [{"measurement": "viability, T/C", "setting": "compound 10 µM", "result": "89.8% [middle of 25 runs]"}, {"measurement": "IC50", "setting": "compound alone, run of 12/07/2021", "result": "> 10000", "unit": "nM"}]}, {"smiles": "NC1CCC(NC2CC2c2ccccc2)CC1", "note": "(stereo not given)", "values": [{"measurement": "viability, T/C", "setting": "compound 0.1 µM", "result": "102% [middle of 25 runs]"}, {"measurement": "viability, T/C", "setting": "compound 0.316 µM", "result": "119% and 98.5%"}, {"measurement": "IC50", "setting": "compound alone, run of 11/29/2021", "result": "> 10000", "unit": "nM"}]}, {"smiles": "NS(=O)(=O)OCC1CC(n2ccc3c(NC4CCc5ccccc54)ncnc32)CC1O", "note": "(stereo not given)", "values": [{"measurement": "viability, T/C", "setting": "compound 0.00949 µM", "result": "105% and 120%"}, {"measurement": "viability, T/C", "setting": "compound 0.03 µM", "result": "102% and 114%"}, {"measurement": "viability, T/C", "setting": "compound 0.0949 µM", "result": "82.6% and 75.8%"}, {"measurement": "viability, T/C", "setting": "compound 0.3 µM", "result": "37.4% and 25.6%"}, {"measurement": "viability, T/C", "setting": "compound 0.949 µM", "result": "16.1% and 7.66%"}, {"measurement": "viability, T/C", "setting": "compound 3 µM", "result": "9.41% and 4.92%"}, {"measurement": "IC50", "setting": "curve of compound", "result": "219 nM and 172 nM"}]}, {"smiles": "Nc1ccccc1NC(=O)c1ccc(CNC(=O)OCc2cccnc2)cc1", "values": [{"measurement": "viability, T/C", "setting": "compound 0.00949 µM", "result": "102% and 86.1%"}, {"measurement": "viability, T/C", "setting": "compound 0.03 µM", "result": "81.6% and 80.2%"}, {"measurement": "viability, T/C", "setting": "compound 0.0949 µM", "result": "63.8% and 59.6%"}, {"measurement": "viability, T/C", "setting": "compound 0.3 µM", "result": "41.9% and 34.8%"}, {"measurement": "viability, T/C", "setting": "compound 0.949 µM", "result": "23.9% and 19.3%"}, {"measurement": "viability, T/C", "setting": "compound 3 µM", "result": "8.2% and 8.35%"}, {"measurement": "IC50", "setting": "curve of compound", "result": "195 nM and 153 nM"}]}, {"smiles": "Nc1ccn(C2OC(CO)C(O)C2(F)F)c(=O)n1", "note": "(stereo not given)", "values": [{"measurement": "viability, T/C", "setting": "compound 0.000949 µM", "result": "27.5% and 26.9%"}, {"measurement": "viability, T/C", "setting": "compound 0.003 µM", "result": "29.6% and 29.3%"}, {"measurement": "viability, T/C", "setting": "compound 0.00949 µM", "result": "29.2% and 28.1%"}, {"measurement": "viability, T/C", "setting": "compound 0.03 µM", "result": "28.8% and 29.1%"}, {"measurement": "viability, T/C", "setting": "compound 0.0949 µM", "result": "30.1% and 28.8%"}, {"measurement": "viability, T/C", "setting": "compound 0.3 µM", "result": "29.1% and 28.3%"}, {"measurement": "IC50", "setting": "curve of compound", "result": "< 0.949", "unit": "nM"}]}, {"smiles": "Nc1ncn(C2CC(O)C(CO)O2)c(=O)n1", "note": "(stereo not given)", "values": [{"measurement": "viability, T/C", "setting": "compound 0.00316 µM", "result": "93.5% and 108%"}, {"measurement": "viability, T/C", "setting": "compound 0.01 µM", "result": "94% and 87.9%"}, {"measurement": "viability, T/C", "setting": "compound 0.0316 µM", "result": "88.2% and 75.7%"}, {"measurement": "viability, T/C", "setting": "compound 0.1 µM", "result": "77.1% and 76.2%"}, {"measurement": "viability, T/C", "setting": "compound 0.316 µM", "result": "72.5% and 69%"}, {"measurement": "viability, T/C", "setting": "compound 1 µM", "result": "72.5% and 69.2%"}, {"measurement": "IC50", "setting": "curve of compound", "result": "> 1000", "unit": "nM"}]}, {"smiles": "Nc1ncn(C2CC(O)C(CO)S2)c(=O)n1", "note": "(stereo not given)", "values": [{"measurement": "viability, T/C", "setting": "compound 0.000949 µM", "result": "107% and 104%"}, {"measurement": "viability, T/C", "setting": "compound 0.003 µM", "result": "104% and 109%"}, {"measurement": "viability, T/C", "setting": "compound 0.00949 µM", "result": 104, "unit": "%"}, {"measurement": "viability, T/C", "setting": "compound 0.03 µM", "result": "97.1% and 94.2%"}, {"measurement": "viability, T/C", "setting": "compound 0.0949 µM", "result": "82.2% and 85.6%"}, {"measurement": "viability, T/C", "setting": "compound 0.3 µM", "result": "78.2% and 72.3%"}, {"measurement": "IC50", "setting": "curve of compound", "result": "> 300", "unit": "nM"}]}, {"smiles": "O=C(C=Cc1cccc(S(=O)(=O)Nc2ccccc2)c1)NO", "values": [{"measurement": "viability, T/C", "setting": "compound 0.00949 µM", "result": "89.1% and 94.7%"}, {"measurement": "viability, T/C", "setting": "compound 0.03 µM", "result": "88.7% and 80.5%"}, {"measurement": "viability, T/C", "setting": "compound 0.0949 µM", "result": "61.9% and 55.5%"}, {"measurement": "viability, T/C", "setting": "compound 0.3 µM", "result": "31.6% and 27.4%"}, {"measurement": "viability, T/C", "setting": "compound 0.949 µM", "result": "15.4% and 10.4%"}, {"measurement": "viability, T/C", "setting": "compound 3 µM", "result": "4.04% and 2.72%"}, {"measurement": "IC50", "setting": "curve of compound", "result": "156 nM and 118 nM"}]}, {"smiles": "O=C(C=Cn1cnc(-c2cc(C(F)(F)F)cc(C(F)(F)F)c2)n1)NNc1cnccn1", "values": [{"measurement": "viability, T/C", "setting": "compound 0.00316 µM", "result": "91.8% and 90.3%"}, {"measurement": "viability, T/C", "setting": "compound 0.01 µM", "result": "83.9% and 74.8%"}, {"measurement": "viability, T/C", "setting": "compound 0.0316 µM", "result": "72.3% and 58.3%"}, {"measurement": "viability, T/C", "setting": "compound 0.1 µM", "result": "53.3% and 44%"}, {"measurement": "viability, T/C", "setting": "compound 0.316 µM", "result": "48.7% and 38.9%"}, {"measurement": "viability, T/C", "setting": "compound 1 µM", "result": "40.4% and 34.1%"}, {"measurement": "IC50", "setting": "curve of compound", "result": "196 nM and 63.7 nM"}]}, {"smiles": "O=C(c1cc(Cc2n[nH]c(=O)c3ccccc23)ccc1F)N1CCN(C(=O)C2CC2)CC1", "values": [{"measurement": "viability, T/C", "setting": "compound 0.0316 µM", "result": "92.2% and 111%"}, {"measurement": "viability, T/C", "setting": "compound 0.1 µM", "result": "109% and 98.7%"}, {"measurement": "viability, T/C", "setting": "compound 0.316 µM", "result": "95.8% and 102%"}, {"measurement": "viability, T/C", "setting": "compound 1 µM", "result": "90.8% and 91.7%"}, {"measurement": "viability, T/C", "setting": "compound 3.16 µM", "result": "87.7% and 73.7%"}, {"measurement": "viability, T/C", "setting": "compound 10 µM", "result": "79.7% and 69.6%"}, {"measurement": "IC50", "setting": "curve of compound", "result": "> 10000", "unit": "nM"}]}]}
